In patent US7141573B2, “Polypharmacophoric agents” (Molecular Insight Pharmaceuticals, Inc., priority 2000, dated 2006):
Read-outs that look alike come from different tables or passages of the source.

Legend:
[1] = molecular target: T1, hNET (Homo sapiens, UniProt P23975); assay: [125I]RTI-55 binding in HEK-hNET membranes; conditions: Table II
T1 construct: expressed in transfected cells; host or cells: HEK cells expressing hNET

[2] = molecular target: T1, hNET; assay: [3H]NE uptake in HEK-hNET cells; assay type: cell-based; conditions: Table II
[3] = molecular target: T2, human dopamine transporter (hDAT) (Homo sapiens, UniProt Q01959); assay: [125I]RTI-55 binding to human dopamine transporter in HEK-293 hDAT membranes; conditions: for Hill Coefficient: [125I]RTI-55 binding
T2 construct: expressed in transfected cells; host or cells: HEK-293 cells stably expressing recombinant hDAT
Procedure: To characterize drug interactions with the human dopamine transporter (hDAT), drugs (approximately 30 nM to 10 μM) were incubated with a membrane preparation from HEK-293 cells stably expressing the recombinant hDAT, [^125I]RTI-55 (34 pM), and buffer in a final volume of 250 μl. Independent assays were conducted 2 to 3 times with duplicate determinations. The Cheng-Prusoff equation was used to convert IC50 values to Ki values.

[4] = molecular target: T3, hDAT (Homo sapiens, UniProt Q01959); assay: [3H]DA uptake in HEK hDAT cells; assay type: cell-based; conditions: Table II
T3 construct: expressed in transfected cells; host or cells: HEK-293 cells stably expressing recombinant hDAT

[5] = molecular target: T4, hSERT (Homo sapiens, UniProt P31645); assay: [125I]RTI-55 binding in HEK hSERT membranes; conditions: Table II; bound given in μM
T4 construct: expressed in transfected cells; host or cells: HEK cells expressing hSERT

[6] = molecular target: T4, hSERT; assay: [3H]5HT uptake in HEK-hSERT cells; assay type: cell-based; conditions: Table II; bound given in μM
[7] = read-out: [125I]RTI-55 Binding in HEK-hNET Membranes KI (nM) sem
[8] = read-out: [3H]NE Uptake in HEK-hNET cells IC50 (nM) sem
[9] = Table II, bound given in μM, read-out: [125I]RTI-55 Binding in HEK hDAT Membranes Ki
[10] = bound given in μM, read-out: [3H]DA Uptake in HEK hDAT cells IC50
[11] = bound given in μM, read-out: [3H]NE Uptake in HEK-hNET cells IC50
[12] = Table 1, [125I]RTI-55 34 pM, HEK-293 hDAT membranes, mean +/- range or s.e.m. of 2 or 3 experiments, read-out: Ki value
[13] = Table 1, HEK-293 hDAT membranes
[14] = read-out: [3H]DA Uptake in HEK hDAT cells IC50 (nM) sem
[15] = bound given in μM, read-out: [125I]RTI-55 Binding in HEK-hNET Membranes KI
[16] = Table II, read-out: [125I]RTI-55 Binding in HEK hDAT Membranes Ki (nM) sem

T4 sequence (P31645 whole entry): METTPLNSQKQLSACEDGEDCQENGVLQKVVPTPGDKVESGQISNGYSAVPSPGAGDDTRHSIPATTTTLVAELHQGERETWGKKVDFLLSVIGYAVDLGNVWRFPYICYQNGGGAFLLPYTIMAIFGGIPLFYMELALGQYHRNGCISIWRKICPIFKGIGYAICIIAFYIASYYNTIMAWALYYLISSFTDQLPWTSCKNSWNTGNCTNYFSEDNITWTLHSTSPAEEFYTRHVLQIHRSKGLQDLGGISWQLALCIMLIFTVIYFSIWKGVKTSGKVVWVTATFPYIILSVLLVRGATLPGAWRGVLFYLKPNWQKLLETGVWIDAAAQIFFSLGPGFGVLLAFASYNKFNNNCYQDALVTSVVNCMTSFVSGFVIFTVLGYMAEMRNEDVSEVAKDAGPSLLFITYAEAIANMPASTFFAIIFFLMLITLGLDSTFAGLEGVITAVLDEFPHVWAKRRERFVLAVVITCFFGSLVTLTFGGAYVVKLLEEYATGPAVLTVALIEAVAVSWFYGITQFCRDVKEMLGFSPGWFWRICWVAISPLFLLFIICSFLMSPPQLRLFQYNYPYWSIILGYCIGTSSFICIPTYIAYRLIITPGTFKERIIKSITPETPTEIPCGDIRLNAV
T1 sequence (P23975 whole entry): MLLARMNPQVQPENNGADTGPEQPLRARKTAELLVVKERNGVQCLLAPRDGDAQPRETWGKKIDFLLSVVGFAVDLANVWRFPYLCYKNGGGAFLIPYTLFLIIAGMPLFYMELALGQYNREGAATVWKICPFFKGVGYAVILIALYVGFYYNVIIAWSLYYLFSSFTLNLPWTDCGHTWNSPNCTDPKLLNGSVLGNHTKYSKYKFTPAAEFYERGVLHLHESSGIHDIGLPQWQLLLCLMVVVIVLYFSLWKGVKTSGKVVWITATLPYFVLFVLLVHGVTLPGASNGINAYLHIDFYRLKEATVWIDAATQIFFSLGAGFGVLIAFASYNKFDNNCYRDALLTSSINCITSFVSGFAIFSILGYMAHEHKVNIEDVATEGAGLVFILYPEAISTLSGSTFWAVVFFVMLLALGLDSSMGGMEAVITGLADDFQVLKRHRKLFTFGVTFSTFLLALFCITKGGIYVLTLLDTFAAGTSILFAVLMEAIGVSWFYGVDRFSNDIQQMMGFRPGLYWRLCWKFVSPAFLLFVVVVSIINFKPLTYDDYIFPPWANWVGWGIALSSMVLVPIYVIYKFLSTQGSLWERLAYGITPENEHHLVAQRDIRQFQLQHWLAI
T2 sequence (Q01959 whole entry): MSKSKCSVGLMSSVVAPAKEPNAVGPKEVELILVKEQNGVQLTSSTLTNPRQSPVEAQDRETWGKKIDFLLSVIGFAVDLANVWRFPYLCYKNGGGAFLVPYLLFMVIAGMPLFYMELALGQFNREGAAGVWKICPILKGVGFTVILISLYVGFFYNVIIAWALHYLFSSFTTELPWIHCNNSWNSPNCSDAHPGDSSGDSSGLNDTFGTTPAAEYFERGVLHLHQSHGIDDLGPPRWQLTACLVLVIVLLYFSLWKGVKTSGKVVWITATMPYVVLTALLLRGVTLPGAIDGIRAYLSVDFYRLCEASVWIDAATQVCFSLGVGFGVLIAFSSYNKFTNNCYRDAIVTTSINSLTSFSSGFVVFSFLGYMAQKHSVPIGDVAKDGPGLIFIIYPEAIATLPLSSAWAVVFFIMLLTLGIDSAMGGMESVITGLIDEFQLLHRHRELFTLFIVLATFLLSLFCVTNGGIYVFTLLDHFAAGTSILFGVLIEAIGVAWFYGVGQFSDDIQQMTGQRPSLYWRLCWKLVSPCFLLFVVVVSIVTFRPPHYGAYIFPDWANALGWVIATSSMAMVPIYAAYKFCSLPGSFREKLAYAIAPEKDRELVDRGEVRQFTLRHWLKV
T3 sequence (Q01959 whole entry): as above

Row | Compound | [125I]RTI-55 Binding in HEK-hNET Membranes Hill slope [1] | Ki [1, 7] | IC50 [2, 8] | Ki [3, 9] | IC50 [4, 10] | Ki [5] | IC50 [6] | IC50 [2, 11] | Ki [3, 12] | Hill Coefficient [3, 13] | [125I]RTI-55 Binding in HEK hDAT Membranes Hill slope ([3]; Table II) | IC50 [4, 14] | Ki [1, 15] | Ki [3, 16]
1 | c1ccc(CCCN2CCN(CCOC(c3ccccc3)c3ccccc3)CC2)cc1 [GBR-12935, reference compound] | −0.90 ± 0.07 | 628 ± 59 nM | 165 ± 17 nM |  |  |  |  |  |  |  |  |  |  | 
2 | O=C(O)C(/C=C/c1ccccc1)NC1CCc2ccccc21 (stereo not shown) [RNH-Z-39] | −0.96 ± 0.17 | 2920 ± 1230 nM |  | > 10 µM | > 10 µM | > 10 µM | > 10 µM | > 10000 nM |  |  |  |  |  | 
3 | O=C(O)C(/C=C/c1ccccc1)C1CCN(CCOC(c2ccccc2)c2ccccc2)CC1 (stereo not shown) [ZHN-92] |  |  | 113 ± 15 nM |  |  | > 10 µM | > 10 µM |  | 3.71 ± 1.25 µM | −1.2 ± 0.2 | −1.15 0.15 | 2.01 ± 0.428 µM | > 10000 nM | 
4 | O=C(O)C(/C=C/c1ccccc1)N1CCC(O)(c2ccc(Cl)cc2)CC1 (stereo not shown) [RNH-Z-48] |  |  |  | > 10 µM | > 10 µM | > 10 µM | > 10 µM | > 10000 nM |  |  |  |  | > 10000 nM | 
5 | CN(CCC=C1c2ccccc2CCc2ccccc21)C(/C=C/c1ccccc1)C(=O)O (stereo not shown) [RNH-Z-44] |  |  |  |  |  | > 10 µM | > 10 µM | > 10000 nM | 3.3 ± 0.855 µM | −2.2 ± 0.9 | −2.16 ± −0.89 | 1.82 ± 0.819 µM | > 10000 nM | 3.3 ± 0.855 µM
6 | CC(Cc1cccc(C(F)(F)F)c1)NC(/C=C/c1ccccc1)C(=O)O (stereo not shown) [RNH-Z-58] |  |  |  | > 10 µM | > 10 µM | > 10 µM | > 10 µM | > 10000 nM |  |  |  |  | > 10000 nM | 
7 | O=C(O)C(/C=C/c1ccccc1)N1CCC(c2ccccc2)CC1 (stereo not shown) [RNH-Z-24] |  |  | 204 ± 85 nM | > 10 µM | > 10 µM | > 10 µM | > 10 µM |  |  |  |  |  | > 10000 nM | 
8 | O=C(NCc1cccc2ccccc12)C(/C=C/c1ccccc1)N1CCC(c2ccccc2)CC1 (stereo not shown) [RNH-Z-31] |  |  |  |  | > 10 µM | > 10 µM | > 10 µM | > 10000 nM | 7.73 ± 3.07 µM | −7.0 ± 4.5 | −7.00 ± 4.54 |  | > 10000 nM | 7.73 ± 3.07 µM
9 | CN(CCCN1c2ccccc2C=Cc2ccccc21)C(/C=C/c1ccccc1)C(=O)O (stereo not shown) [RNH-Z-52] |  |  |  | > 10 µM | > 10 µM | > 10 µM | > 10 µM | > 10000 nM |  |  |  |  | > 10000 nM | 
10 | O=C(O)C(/C=C/c1ccccc1)N1CCN(CCOC(c2ccccc2)c2ccccc2)CC1 (stereo not shown) [ZHN-94] |  |  | 2200 ± 470 nM |  |  | > 10 µM | > 10 µM |  | 2.78 ± 1.25 µM | −0.8 ± 0.2 | −0.78 ± 0.17 | 0.385 ± 0.111 µM | > 10000 nM | 2.78 ± 1.25 µM
11 | CN(C)C(=O)C(/C=C/c1ccccc1)N1CCC(c2ccccc2)CC1 (stereo not shown) [RNH-Z-28] |  |  | 211 ± 65 nM |  |  | > 10 µM | > 10 µM |  | 3.92 ± 1.25 µM | −2.1 ± 0.6 | −2.09 ± 0.60 | 4.04 ± 1.63 µM | > 10000 nM | 3.92 ± 1.25 µM
12 | O=C(O)C(/C=C/c1ccccc1)C1CCN(CCOC(c2ccc(F)cc2)c2ccc(F)cc2)CC1 (stereo not shown) [ZHN-93] | −1.78 ± 0.65 | 4540 ± 1540 nM | 117 ± 20 nM |  |  | > 10 µM | > 10 µM |  | 0.727 ± 0.291 µM | −1.0 ± 0.3 | −1.02 ± 0.30 | 0.182 ± 0.059 µM |  | 0.727 ± 0.291 µM
